Results on 13 compounds are retold here after patent US20260365628A1, “SUBSTITUTED 3,4-DIHYDROQUINOLINONE INHIBITORS OF TSHR” (Septerna, Inc., priority 2022, published 2026).

A value given as a limit tells only on which side of the number the result lay.

This test deals with T1, hTSHR (Homo sapiens, UniProt P16473).
T1 construct: expressed in transfected cells
T1 sequence (P16473 21-764): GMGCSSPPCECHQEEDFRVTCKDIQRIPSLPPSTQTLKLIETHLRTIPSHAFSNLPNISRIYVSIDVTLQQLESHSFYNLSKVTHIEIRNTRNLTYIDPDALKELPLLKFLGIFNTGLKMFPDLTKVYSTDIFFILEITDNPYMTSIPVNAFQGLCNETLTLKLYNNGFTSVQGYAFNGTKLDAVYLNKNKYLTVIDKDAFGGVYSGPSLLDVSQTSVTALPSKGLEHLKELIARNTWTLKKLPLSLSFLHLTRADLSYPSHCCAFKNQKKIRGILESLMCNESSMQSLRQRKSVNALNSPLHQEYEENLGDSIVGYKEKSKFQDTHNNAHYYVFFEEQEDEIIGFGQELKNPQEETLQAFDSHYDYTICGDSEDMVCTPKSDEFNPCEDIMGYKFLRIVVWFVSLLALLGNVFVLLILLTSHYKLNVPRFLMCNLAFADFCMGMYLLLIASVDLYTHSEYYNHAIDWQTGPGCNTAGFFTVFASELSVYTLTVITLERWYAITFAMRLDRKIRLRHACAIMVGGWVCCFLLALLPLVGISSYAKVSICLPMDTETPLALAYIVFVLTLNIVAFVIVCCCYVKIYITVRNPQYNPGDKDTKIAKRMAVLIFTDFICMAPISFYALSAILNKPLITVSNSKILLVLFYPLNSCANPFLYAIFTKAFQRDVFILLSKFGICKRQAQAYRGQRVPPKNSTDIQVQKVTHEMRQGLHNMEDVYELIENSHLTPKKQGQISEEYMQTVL
The test is described as follows: hTSHR TR-FRET cAMP Assay (inhibition of M22-stimulated cAMP production). To be noted: Expi293F Inducible cells stably expressing hTSHR; cAMP HTRF; stimulated with EC80 of anti-TSHR antibody M22; 15 min compound preincubation, 30 min at 37° C.; read-out: Activity (IC50 bins). It counts as cell-based. The essentials:
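Readout was a cAMP HTRF ratio of 655/620 nm after lysis, scaled between the EC80 M22 signal (0% inhibition) and no-agonist vehicle (100%). Frozen induced Expi293F-hTSHR cells saw test compounds (0.5% DMSO) for 15 min at 37 °C before 30 min of M22 stimulation at EC80.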
(In TR-FRET formats the signal depends on donor and acceptor labels being close together.)
Take `CC(c1cc(C(F)(F)F)ccn1)n1c(=O)cnc2cc(NC(=O)NC3(C)CCC3)ccc21` (stereo not shown) [Example 337, 1-(1-methylcyclobutyl)-3-(2-oxo-1-(1-(4-(trifluoromethyl)pyridin-2-yl)ethyl)-1,2-dihydroquinoxalin-6-yl)urea]: the half-maximal inhibitory concentration (IC50) is 0.1 to 1 µM. Under `C[C@H]1Oc2cc(NC(=O)NC(C)(C)C)c(F)cc2N(Cc2cccc(OC(F)F)c2)C1=O` [Example 338, (R)-1-(tert-butyl)-3-(4-(3-(difluoromethoxy)benzyl)-6-fluoro-2-methyl-3-oxo-3,4-dihydro-2H-benzo[b][1,4]oxazin-7-yl)urea] stands 0.1 to 1 µM; under `C[C@@H](c1cccc(OC(F)(F)F)c1)n1c(=O)cnc2cc(NC(=O)NC(C)(C)C)c(F)cc21` [Example 339, (S)-1-(tert-butyl)-3-(7-fluoro-2-oxo-1-(1-(3-(trifluoromethoxy)phenyl)ethyl)-1,2-dihydroquinoxalin-6-yl)urea], 0.1 to 1 µM; under `C[C@H]1Oc2cc(NC(=O)NC(C)(C)C)c(F)c(F)c2N(Cc2cccc(C(F)F)c2)C1=O` [Example 340, (R)-1-(tert-butyl)-3-(4-(3-(difluoromethyl)benzyl)-5,6-difluoro-2-methyl-3-oxo-3,4-dihydro-2H-benzo[b][1,4]oxazin-7-yl)urea], 0.1 to 1 µM.

For `C[C@H]1Oc2cc(NC(=O)NC(C)(C)C)c(C#N)cc2N(Cc2ccccc2)C1=O` [Example 341, (R)-1-(4-benzyl-6-cyano-2-methyl-3-oxo-3,4-dihydro-2H-benzo[b][1,4]oxazin-7-yl)-3-(tert-butyl)urea], the IC50 was in the range of 0.1 to 1 µM. Under `C[C@H]1Oc2cc(NC(=O)NC(C)(C)C)c(C#N)cc2N(Cc2cccc(C(F)F)c2)C1=O` [Example 342, (R)-1-(tert-butyl)-3-(6-cyano-4-(3-(difluoromethyl)benzyl)-2-methyl-3-oxo-3,4-dihydro-2H-benzo[b][1,4]oxazin-7-yl)urea] stands less than 0.1 µM; under `C[C@@H](c1ccccc1)N1C(=O)CCc2cc(NC(=O)NC(C)(C)C)c(C(F)(F)F)cc21` [Example 343, (S)-1-(tert-butyl)-3-(2-oxo-1-(1-phenylethyl)-7-(trifluoromethyl)-1,2,3,4-tetrahydroquinolin-6-yl) urea], less than 0.1 µM. Under `C[C@@H](c1ccccc1)n1c(=O)cnc2cc(NC(=O)NC(C)(C)C)c(Cl)cc21` [Example 344, (S)-1-(tert-butyl)-3-(7-chloro-2-oxo-1-(1-phenylethyl)-1,2-dihydroquinoxalin-6-yl)urea] stands 0.1 to 1 µM. Regarding `CC(C)(C)NC(=O)Nc1c(F)cc2c(c1F)CCC(=O)N2Cc1ccccc1` [Example 345, 1-(1-benzyl-5,7-difluoro-2-oxo-1,2,3,4-tetrahydroquinolin-6-yl)-3-(tert-butyl) urea], the IC50 lay within 0.1 to 1 µM. Under `C[C@@H](c1ccccc1)n1c(=O)cnc2cc(NC(=O)NC(C)(C)C)c(C(F)(F)F)cc21` [Example 346, 3-tert-butyl-1-{2-oxo-1-[(1S)-1-phenylethyl]-7-(trifluoromethyl)quinoxalin-6-yl}urea] stands 0.1 to 1 µM; under `Cc1cc2c(cc1NC(=O)NC(C)(C)C)ncc(=O)n2[C@@H](C)c1ccccc1` [Example 347, 3-tert-butyl-1-{7-methyl-2-oxo-1-[(1S)-1-phenylethyl]quinoxalin-6-yl}urea], 0.1 to 1 µM; under `C[C@@H](c1ccccc1)n1c(=O)cnc2cc(NC(=O)NC(C)(C)C)c(C3CC3)cc21` [Example 348, 3-tert-butyl-1-{7-cyclopropyl-2-oxo-1-[(1S)-1-phenylethyl]quinoxalin-6-yl}urea], 0.1 to 1 µM. Under `C[C@H]1Oc2cc(NC(=O)NC(C)(C)C)c(C(F)(F)F)cc2N([C@@H](C)c2ccccc2)C1=O` [Example 349, 1-(tert-butyl)-3-((R)-2-methyl-3-oxo-4-((S)-1-phenylethyl)-6-(trifluoromethyl)-3,4-dihydro-2H-benzo[b][1,4]oxazin-7-yl)urea] stands less than 0.1 µM.

As a reminder, the IC50 is the point on the concentration scale where inhibition reaches its midpoint.
